In the NIST ThermoML archive (doi:10.1016/j.jct.2005.03.020):
Numbers after ± are expanded uncertainties.

Key:
[1] = xn = mol fraction of the nth substance listed; settings: 298.15 K, 101.33 kPa, Liquid
[2] = excess molar enthalpy (molar enthalpy of mixing); xn = mol fraction of the nth substance listed; settings: 298.15 K, 101.33 kPa, Liquid

## CCOC(=O)CC [ethyl propanoate] + ClCCCl
[1]; x1 = 0.0458
  mass density: 1221.49 ± 0.78 kg/m3
[1]; x1 = 0.0867
  mass density: 1201.01 ± 0.74 kg/m3
[1]; x1 = 0.131
  mass density: 1179.33 ± 0.7 kg/m3
[1]; x1 = 0.1761
  mass density: 1158.4 ± 0.66 kg/m3
[1]; x1 = 0.225
  mass density: 1136.63 ± 0.62 kg/m3
[1]; x1 = 0.2733
  mass density: 1116.14 ± 0.58 kg/m3
[1]; x1 = 0.3272
  mass density: 1094.1 ± 0.55 kg/m3
[1]; x1 = 0.3811
  mass density: 1073.16 ± 0.52 kg/m3
[1]; x1 = 0.4371
  mass density: 1052.35 ± 0.49 kg/m3
[1]; x1 = 0.4963
  mass density: 1031.27 ± 0.47 kg/m3
[1]; x1 = 0.5583
  mass density: 1010.27 ± 0.45 kg/m3
[1]; x1 = 0.6235
  mass density: 989.23 ± 0.46 kg/m3
[1]; x1 = 0.69
  mass density: 968.72 ± 0.49 kg/m3
[1]; x1 = 0.7598
  mass density: 948.13 ± 0.52 kg/m3
[1]; x1 = 0.835
  mass density: 927.04 ± 0.56 kg/m3
[1]; x1 = 0.9131
  mass density: 906.11 ± 0.6 kg/m3

## ClCCCCCCCl [1,6-dichlorohexane] + CCOC(=O)CC
[1]; x2 = 0.0733
  mass density: 1053.16 ± 1.1 kg/m3
[1]; x2 = 0.144
  mass density: 1042.66 ± 1 kg/m3
[1]; x2 = 0.2117
  mass density: 1032.32 ± 0.98 kg/m3
[1]; x2 = 0.2775
  mass density: 1021.98 ± 0.93 kg/m3
[1]; x2 = 0.3418
  mass density: 1011.56 ± 0.88 kg/m3
[1]; x2 = 0.4104
  mass density: 1000.12 ± 0.83 kg/m3
[1]; x2 = 0.5264
  mass density: 979 ± 0.77 kg/m3
[1]; x2 = 0.5884
  mass density: 968.62 ± 0.74 kg/m3
[1]; x2 = 0.7491
  mass density: 937.72 ± 0.68 kg/m3
[1]; x2 = 0.8052
  mass density: 926.3 ± 0.67 kg/m3
[1]; x2 = 0.8547
  mass density: 915.96 ± 0.66 kg/m3
[1]; x2 = 0.905
  mass density: 905.21 ± 0.65 kg/m3
[1]; x2 = 0.9513
  mass density: 894.99 ± 0.64 kg/m3

## CCCCC(=O)OCC [ethyl pentanoate] + ClCCCCl
[2]; x2 = 0.0493
  excess molar enthalpy: -0.00743 ± 0.000478 kcal/mol
[2]; x2 = 0.0986
  excess molar enthalpy: -0.0147 ± 0.000598 kcal/mol
[2]; x2 = 0.1536
  excess molar enthalpy: -0.0238 ± 0.000741 kcal/mol
[2]; x2 = 0.2082
  excess molar enthalpy: -0.0333 ± 0.000884 kcal/mol
[2]; x2 = 0.261
  excess molar enthalpy: -0.0426 ± 0.00103 kcal/mol
[2]; x2 = 0.3126
  excess molar enthalpy: -0.052 ± 0.00117 kcal/mol
[2]; x2 = 0.3627
  excess molar enthalpy: -0.061 ± 0.00131 kcal/mol
[2]; x2 = 0.4084
  excess molar enthalpy: -0.066 ± 0.00139 kcal/mol
[2]; x2 = 0.4405
  excess molar enthalpy: -0.0697 ± 0.00146 kcal/mol
[2]; x2 = 0.4492
  excess molar enthalpy: -0.0707 ± 0.00146 kcal/mol
[2]; x2 = 0.5044
  excess molar enthalpy: -0.0725 ± 0.00151 kcal/mol
[2]; x2 = 0.5692
  excess molar enthalpy: -0.0725 ± 0.00148 kcal/mol
[2]; x2 = 0.6438
  excess molar enthalpy: -0.0687 ± 0.00143 kcal/mol
[2]; x2 = 0.7284
  excess molar enthalpy: -0.0593 ± 0.00129 kcal/mol
[2]; x2 = 0.8181
  excess molar enthalpy: -0.0439 ± 0.00105 kcal/mol
[2]; x2 = 0.9124
  excess molar enthalpy: -0.0246 ± 0.000765 kcal/mol
[1]; x1 = 0.0395
  mass density: 1159.55 ± 0.81 kg/m3
[1]; x1 = 0.0785
  mass density: 1141.75 ± 0.78 kg/m3
[1]; x1 = 0.1207
  mass density: 1123.43 ± 0.74 kg/m3
[1]; x1 = 0.1642
  mass density: 1105.29 ± 0.71 kg/m3
[1]; x1 = 0.2098
  mass density: 1087.19 ± 0.68 kg/m3
[1]; x1 = 0.2576
  mass density: 1069.12 ± 0.64 kg/m3
[1]; x1 = 0.3081
  mass density: 1050.97 ± 0.61 kg/m3
[1]; x1 = 0.3623
  mass density: 1032.41 ± 0.59 kg/m3
[1]; x1 = 0.4179
  mass density: 1014.41 ± 0.56 kg/m3
[1]; x1 = 0.4804
  mass density: 995.25 ± 0.54 kg/m3
[1]; x1 = 0.538
  mass density: 978.58 ± 0.55 kg/m3
[1]; x1 = 0.6036
  mass density: 960.5 ± 0.56 kg/m3
[1]; x1 = 0.744
  mass density: 925.06 ± 0.59 kg/m3
[1]; x1 = 0.8249
  mass density: 906.38 ± 0.61 kg/m3
[1]; x1 = 0.9085
  mass density: 888.3 ± 0.63 kg/m3

## ClCCCCCCCl [1,6-dichlorohexane] + CCOC=O
[1]; x2 = 0.1021
  mass density: 1054.55 ± 1.2 kg/m3
[1]; x2 = 0.1921
  mass density: 1045.86 ± 1.2 kg/m3
[1]; x2 = 0.2781
  mass density: 1036.7 ± 1.2 kg/m3
[1]; x2 = 0.357
  mass density: 1027.68 ± 1.3 kg/m3
[1]; x2 = 0.4266
  mass density: 1019.06 ± 1.3 kg/m3
[1]; x2 = 0.4923
  mass density: 1010.37 ± 1.3 kg/m3
[1]; x2 = 0.5555
  mass density: 1001.35 ± 1.3 kg/m3
[1]; x2 = 0.6677
  mass density: 983.71 ± 1.4 kg/m3
[1]; x2 = 0.7169
  mass density: 975.18 ± 1.4 kg/m3
[1]; x2 = 0.7649
  mass density: 966.4 ± 1.4 kg/m3
[1]; x2 = 0.8091
  mass density: 957.78 ± 1.4 kg/m3
[1]; x2 = 0.8515
  mass density: 949.08 ± 1.4 kg/m3
[1]; x2 = 0.8915
  mass density: 940.41 ± 1.4 kg/m3
[1]; x2 = 0.929
  mass density: 931.82 ± 1.4 kg/m3
[1]; x2 = 0.9647
  mass density: 923.23 ± 1.5 kg/m3

## ClCCCCCCCl [1,6-dichlorohexane] + CCCC(=O)OCC
[2]; x2 = 0.051
  excess molar enthalpy: -0.000789 ± 0.000382 kcal/mol
[2]; x2 = 0.1085
  excess molar enthalpy: -0.0022 ± 0.000406 kcal/mol
[2]; x2 = 0.1746
  excess molar enthalpy: -0.00564 ± 0.000454 kcal/mol
[2]; x2 = 0.2423
  excess molar enthalpy: -0.0101 ± 0.000526 kcal/mol
[2]; x2 = 0.3076
  excess molar enthalpy: -0.0158 ± 0.000621 kcal/mol
[2]; x2 = 0.3688
  excess molar enthalpy: -0.0202 ± 0.000693 kcal/mol
[2]; x2 = 0.4325
  excess molar enthalpy: -0.0254 ± 0.000765 kcal/mol
[2]; x2 = 0.4782
  excess molar enthalpy: -0.0283 ± 0.000813 kcal/mol
[2]; x2 = 0.525
  excess molar enthalpy: -0.0321 ± 0.00086 kcal/mol
[2]; x2 = 0.5779
  excess molar enthalpy: -0.0341 ± 0.000908 kcal/mol
[2]; x2 = 0.6383
  excess molar enthalpy: -0.0346 ± 0.000908 kcal/mol
[2]; x2 = 0.7034
  excess molar enthalpy: -0.0313 ± 0.00086 kcal/mol
[2]; x2 = 0.7744
  excess molar enthalpy: -0.0254 ± 0.000765 kcal/mol
[2]; x2 = 0.8524
  excess molar enthalpy: -0.0179 ± 0.000645 kcal/mol
[2]; x2 = 0.9323
  excess molar enthalpy: -0.00949 ± 0.000526 kcal/mol
[1]; x2 = 0.0651
  mass density: 1052.45 ± 1.1 kg/m3
[1]; x2 = 0.1277
  mass density: 1041.56 ± 1.1 kg/m3
[1]; x2 = 0.1889
  mass density: 1030.69 ± 1.1 kg/m3
[1]; x2 = 0.2509
  mass density: 1019.59 ± 1.1 kg/m3
[1]; x2 = 0.3119
  mass density: 1008.53 ± 1.1 kg/m3
[1]; x2 = 0.3711
  mass density: 997.66 ± 1 kg/m3
[1]; x2 = 0.4384
  mass density: 985.13 ± 1 kg/m3
[1]; x2 = 0.4971
  mass density: 974.07 ± 1 kg/m3
[1]; x2 = 0.5548
  mass density: 963.05 ± 1 kg/m3
[1]; x2 = 0.6131
  mass density: 951.77 ± 1 kg/m3
[1]; x2 = 0.67
  mass density: 940.63 ± 1 kg/m3
[1]; x2 = 0.7263
  mass density: 929.48 ± 1 kg/m3
[1]; x2 = 0.7824
  mass density: 918.28 ± 1 kg/m3
[1]; x2 = 0.8369
  mass density: 907.25 ± 1 kg/m3
[1]; x2 = 0.8922
  mass density: 895.96 ± 1 kg/m3
[1]; x2 = 0.9457
  mass density: 884.85 ± 1 kg/m3
